Values of other authors as cited in CN101444491A, “奥扎格雷钠微球冻干制剂及其制备方法” (HAINAN SHU ER PHARMACEUTICAL RESEARCH Co Ltd, priority 2008, dated 2009).

What was measured:
[1] = after conversion into sodium salt (JP2001316265)

SMILES | stability in aqueous solution [1] | solubility in water
O=C(O)/C=C/c1ccc(Cn2ccnc2)cc1 [奥扎格雷钠, 钠盐] | 稳定性下降 | –
O=C(O)/C=C/c1ccc(Cn2ccnc2)cc1 [奥扎格雷] | – | 溶解度较小
